# Assays:
# [1] = system: monocytes of healthy donors; assay: Intracellular TNFα production in monocytes after TLR2 (lipoteichoic acid, LTA) stimulation, flow cytometry; assay type: cell-based, human; conditions: inhibitor 1 h before LTA (TLR2) 1 μg/ml, 16 h, flow cytometry (FIG. 6)
# Description: (§1) The cells were rinsed in PBS then incubated with a viability dye (Zombie Aqua, Biolegend) for 30 min at ambient temperature. After washing, the cells were resuspended in PBS containing 2% SVF and 2 mM EDTA then labelled with the APC Vio770 anti-CD14 (clone REA599) antibody from Miltenyi Biotec, used at 1/100°. […] The cells were fixed for 20 min at ambient temperature with 250 μL Inside Fix solution then labelled in 100 μL Inside Perm solution containing the PE anti-TNFα (Miltenyi Biotec) and/or APC anti-IL-1β (Miltenyi Biotec) antibody at 1/50° for 30 min at ambient temperature. Data acquisition was carried out on the Canto II flow cytometer using the Diva software (BD Biosciences, San Jose, Calif.). The Kaluza software was used to analyze the data.
# [2] = system: immune cells (PBMCs and purified monocytes) of healthy donors; assay: Production of inflammatory cytokines by PBMCs and purified monocytes after TLR2/4 stimulation by bacterial agents; assay type: cell-based, human; conditions: TLR 2/4 stimulation by lipoteichoic acid/LPS
# [3] = system: monocytes of healthy donors; assay: Intracellular IL1β and TNFα in monocytes after inflammasome activation by uric acid crystals (MSU, gout model), flow cytometry; assay type: cell-based, human
# Description: (§2) The cells were rinsed in PBS then incubated with a viability dye (Zombie Aqua, Biolegend) for 30 min at ambient temperature. After washing, the cells were resuspended in PBS containing 2% SVF and 2 mM EDTA then labelled with the APC Vio770 anti-CD14 (clone REA599) antibody from Miltenyi Biotec, used at 1/100°. […] Data acquisition was carried out on the Canto II flow cytometer using the Diva software (BD Biosciences, San Jose, Calif.). The Kaluza software was used to analyze the data.
# [4] = system: monocytes of healthy donors; assay: Intracellular TNFα production in monocytes after TLR7/8 (Resiquimod-R848) stimulation, flow cytometry; assay type: cell-based, human; conditions: inhibitor 1 h before R848 (TLR7/8), 16 h, flow cytometry (FIG. 1, 2)
# Description: as §2, with “[…]” for “II”
# [5] = system: peripheral blood mononuclear cells (PBMCs) of healthy donors; assay: Toxicity on PBMCs (CellTiter-Glo), HIV; assay type: cell-based, human; conditions: PBMCs of healthy donors infected with HIV, 24 h, CellTiter-Glo (FIG. 14)
# Description: (§3) After 24 h of cell culture, the cell viability was determined using the CellTiter-Glo reagent (Promega), which evaluates the amount of ATP by luminescence using the EnSpire.
# [6] = system: peripheral blood mononuclear cells (PBMCs) of healthy donors; assay: Secretion of inflammatory cytokines and interferons by PBMCs in response to HIV, LegendPlex; assay type: cell-based, human; conditions: 24 h, LegendPlex (FIG. 13)
# [7] = system: peripheral blood mononuclear cells (PBMCs) of healthy donors; assay: Toxicity on PBMCs (CellTiter-Glo), TLR7/8 stimulation; assay type: cell-based, human; conditions: TLR 7/8 stimulation, 24 h, CellTiter-Glo (FIG. 4)
# Description: Test for toxicity of the compounds on the peripheral blood mononuclear cells (PBMCs).
# as §3
# [8] = system: peripheral blood mononuclear cells (PBMCs) of healthy donors; assay: Secretion of inflammatory cytokines and interferons by PBMCs after TLR7/8 (R848) stimulation, LegendPlex
# [9] = system: peripheral blood mononuclear cells (PBMCs) of healthy donors; assay: Secretion of inflammatory cytokines and interferons by PBMCs after TLR4 stimulation, LegendPlex; assay type: cell-based, human; conditions: 24 h, LegendPlex (FIG. 7)
# [10] = system: plasmacytoid dendritic cells (pDC) of healthy donors; assay: Intracellular IFNα and TNFα in plasmacytoid dendritic cells in response to HIV, flow cytometry; assay type: cell-based, human; conditions: AT-2-inactivated HIV-1MN, 16 h
# Description: The cells were rinsed in PBS then incubated with a viability dye (Zombie Aqua, Biolegend) for 30 min at ambient temperature. After washing, the cells were resuspended in PBS containing 2% SVF and 2 mM EDTA then labelled with the APC Vio770 anti-CD14 (clone REA599) antibody from Miltenyi Biotec, used at 1/100°. For the intracellular labelling of TNFα and IFNα, the “Inside Stain” kit (Miltenyi Biotec) was used according to the manufacturer's protocol. The cells were fixed for 20 min at ambient temperature with 250 μL Inside Fix solution then labelled in 100 μL Inside Perm solution containing the APC anti-TNFα (Miltenyi Biotec) and/or PE anti-IFNα (Miltenyi Biotec) antibody at 1/50° for 30 min at ambient temperature. Data acquisition was carried out on the Canto II flow cytometer using the Diva software (BD Biosciences, San Jose, Calif.). The Kaluza software was used to analyze the data.
# [11] = system: monocytes of patients suffering from juvenile idiopathic arthritis; assay: Spontaneous TNFα production by monocytes of juvenile idiopathic arthritis patients, SIMOA (digital ELISA); assay type: cell-based, human; conditions: inhibitor 24 h, SIMOA (FIG. 16)
# Description: The assay of the TNFα secreted by the monocytes of a patient suffering from juvenile idiopathic arthritis was carried out by SIMOA (digital ELISA).
# [12] = system: peripheral blood mononuclear cells (PBMCs) of healthy donors; assay: Toxicity on PBMCs (CellTiter-Glo), TLR4 stimulation; assay type: cell-based, human; conditions: 24 h, CellTiter-Glo (FIG. 8)
# Description: as §3
# [13] = system: monocytes of healthy donors; assay: Intracellular TNFα production in monocytes after TLR4 (LPS) stimulation, flow cytometry; assay type: cell-based, human; conditions: inhibitor 1 h before LPS (TLR4) 100 ng/ml, 16 h, flow cytometry (FIG. 5)
# Description: as §1
# [14] = system: peripheral blood mononuclear cells (PBMCs) of healthy donors; assay: Interferon secretion by R848-stimulated PBMCs, inhibitor before, during or after stimulation, STING-37 reporter cell line; assay type: cell-based, human
# [15] = system: neurones infected by the prions; assay type: cell-based
# activated immune cells = assay: Secretion of inflammatory cytokines and interferons by activated immune cells placed in contact with ROCK inhibitor; assay type: cell-based; conditions: compared with activated immune cells not placed in contact with the inhibitor
# [16] = system: peripheral blood mononuclear cells (PBMCs); assay: Interferon production by cGAMP-activated PBMCs, STING-37 reporter cell line; conditions: inhibitor 1 h before cGAMP 3 μg/ml, 24 h, STING-37 reporter (FIG. 22A, 23A)
# [17] = system: THP1-Dual human monocyte cell line; assay: Interferon response of cGAMP-activated THP1-Dual cells, luciferase; conditions: inhibitor 1 h before cGAMP 3 μg/ml, 24 h, luciferase (FIG. 22B, 23B)
# [18] = system: THP1-Dual human monocyte cell line; assay: Cell toxicity on THP1-Dual, ATP quantification with CellTiter Glo; assay type: cell-based; conditions: cGAMP 24 h
# [19] = system: peripheral blood mononuclear cells (PBMCs); assay: Cell toxicity on PBMCs, ATP quantification with CellTiter Glo; assay type: cell-based, human; conditions: cGAMP 24 h
# [20] = system: HEK293 non-immune cell line; assay: Interferon production by cGAMP-activated HEK293 non-immune cells (STING-37), luciferase; conditions: inhibitor at 1 μM (FIG. 23C)
# [21] = PBMCs of healthy donors, inhibitor 1 h before R848 (TLR7/8), 24 h, LegendPlex (FIG. 3)
compound,measurement,setting,value
BX912,production of inflammatory cytokines (TNFα),[1],"inhibits, according to a dosage effect"
same,production of inflammatory cytokines,[2],capable of inhibiting the production of inflammatory cytokines
same,production of inflammatory cytokines,[3]; activation of the inflammasome by uric acid crystals (mimicking gout),capable of inhibiting the production of inflammatory cytokines
same,intracellular production of IL1β,"[3]; uric acid crystals (MSU) 50 μg/ml, 16 h, gout model (FIG. 9)",inhibits the intracellular production
same,production of TNFα,"[3]; uric acid crystals (MSU) 50 μg/ml, 16 h, gout model (FIG. 10)",inhibits the production
same,intracellular production of inflammatory cytokines (TNFα),[4],"inhibits, according to a dosage effect"
same,toxicity on PBMCs,[5],no toxicity
same,"secretion of the inflammatory cytokines (IL-6, IL-1β, TNFα, IP10)",[6],inhibits the secretion
same,"secretion of the interferons (IFNα2, IFNβ, IFNI1)",[6],inhibits the secretion
same,toxicity on the immune cells (PBMCs),[7],no toxicity
same,"secretion of the inflammatory cytokines (IL-6, IL-1β, TNFα, IP10, GM-CSF, IL-10)",[8]; [21],inhibits the secretion
same,"secretion of the interferons (IFNI1, IFNI2/3, IFNβ, IFNg)",[8]; [21],inhibits the secretion
same,"secretion of the inflammatory cytokines (IL-6, IL-1β, TNFα, GM-CSF, IL-10)",[9],inhibits the secretion
same,"secretion of the interferons (IFNI2/3, IFNβ, IFNg)",[9],inhibits the secretion
same,intracellular production of interferon IFNα,[10]; flow cytometry (FIG. 11),inhibits the intracellular production
same,production of TNFα,[10]; flow cytometry (FIG. 12),inhibits the production
same,spontaneous production of TNFα,[11],inhibits the spontaneous production
same,toxicity on PBMCs,[12],no toxicity
same,production of inflammatory cytokines (TNFα),[13],"inhibits, according to a dosage effect"
same,secretion of interferons,"[14]; inhibitor during the TLR 7/8 stimulation, STING-37 reporter (FIG. 15B)",blocking
same,secretion of interferons,"[14]; inhibitor in a curative manner, 1 h after TLR 7/8 stimulation, STING-37 reporter (FIG. 15C)",blocking
same,secretion of interferons,"[14]; inhibitor in a preventive manner, 1 h before TLR 7/8 stimulation, STING-37 reporter (FIG. 15A)",blocking
Cc1cncc2cccc(S(=O)(=O)N3CCCNCC3C)c12 (stereo not drawn) [dimethylfasudil],level of TNFα in the culture medium,[15],re-establishes a “normal” level
same,"production of TNFα and of pro-inflammatory cytokines such as IL-6, IL-1β and the interferons induced by the TLR7/8 stimulation",[8]; human PBMCs incubated with inhibitor before R848 stimulation,inhibits the production
same,"secretion of the inflammatory cytokines (TNFα, IL-1β, IL6, MCP1 (CCL2)) and of the interferons (IFN)",activated immune cells,inhibits the secretion
same,production of interferons (IFN) induced by the cGAMP,[16],blocks the production of interferons (IFN) induced by the cGAMP according to a dosage effect starting from 1 μM
same,production of interferons (IFN) induced by the cGAMP,[17],blocks the production of interferons (IFN) induced by the cGAMP according to a dosage effect starting from 1 μM
same,viability of the THP1-Dual,[18],without affecting the viability
same,viability of the PBMCs,[19],without affecting the viability
same,production of interferon induced by the STING ligand,[20],does not block
